Source: patent US9012500B2, “PKC-ε activator” (Nishizaki Bioinformation Research Institute, priority 2010, dated 2015)

Key:
[1] = test system: senescence-accelerated mouse (SAMP8); assay: Water maze test in senescence-accelerated mouse (SAMP8); type: in vivo; details: SAMP8, 0.25 mg/kg orally once a day, 8 days
Procedure: Using senescence-accelerated mouse (accelerated-senescence-prone mice 8: SAMP8) and normal senescence mouse (accelerated-senescence-resistant mice 1: SAMR1) as a control thereof, a water maze test was performed. Male SAMP8 and SAMR1 (22- to 25-week-old) were available from Takeda Pharmaceutical Company Limited (Osaka, Japan). The mice were individually raised in a cage at 23±1° C., 12 hr light/dark cycle (lighted at 7:00 am), and allowed to freely ingest feed (solid feed) and water.
Racemate DCP-LA and 4 optical isomers DCP-LA (α,α-, α,β-, β,α-, β,β-DCP-LA), each dissolved in 0.1 ml polyethylene glycol (PEG), or 0.1 ml PEG were orally administered once a day from the day when the water maze test was started. For each group, the water maze test was performed twice a day for 8 days, and the time required to reach a platform (acquisition latency) was measured.
For the water maze test, a circular plastic water tank (diameter 90 cm, depth 36 cm) was used. The inside of the water tank was completely painted in black, and dark water with India ink was filled up to 20 cm from the bottom (22° C.). A platform (diameter 11 cm) painted in black was placed in water such that it was 1 cm below the water surface. The water tank was placed in a test room, and several marks seen by the mice from the water tank were put thereon. During the test, the position of the marks was not changed. A platform was placed a predetermined position from the equal distance from the center and the end of the water tank, namely, center of one quadrant. At one of the randomly selected 5 points, the mouse was released facing the wall of the water tank, and the time necessary for evacuating on the platform (acquisition latency) was measured. When smoothly evacuated, the mouse was left on the platform for 10 seconds. From the day of water maze test and during the test, polyethylene glycol (PEG) alone or racemate DCP-LA (1 mg/kg), α,α-DCP-LA (0.25 mg/kg), α,β-DCP-LA (0.25 mg/kg), β,α-DCP-LA (0.25 mg/kg), or β,β-DCP-LA (0.25 mg/kg), each dissolved in PEG, was orally administered every day. The water maze test was performed twice a day, and the second test was started at 2 min from the first test. The test was continuously performed for 8 days, and the average value (±SEM) of acquisition latency of continuous 2 days until the mouse reached the platform was calculated (each n=5).

[2] = test system: PKC activity of rat PC-12 cells; assay: Intracellular PKC assay in PC-12 cells; type: cell-based
Procedure: According to the method described in a publication [Kanno T et al., J Lipid Res 47 (6):1146-1156, 2006], the PKC activity of rat PC-12 cells was assayed. The cells were treated with each DCP-LA optical isomer at 37° C. for 10 min. The treatment was performed in an extracellular solution [137 mM NaCl, 5.4 mM KCl, 10 mM MgCl2, 5 mM ethyleneglycol-bis(2-aminoethylether)-N,N,N′,N′-tetraacetic acid (EGTA), 0.3 mM Na2HPO4, 0.4 mM K2HPO4 and 20 mM 4-(2-hydroxyethyl)-1-piperazin-ethanesulfonic acid, pH 7.2]. Then, the cells were rinsed with 100 μl of phosphate-buffered saline (PBS) in the absence of Ca^2+, and incubated in an extracellular solution (50 μl) containing 50 μg/ml digitonin, 25 mM glycerol 2-phosphate, 200 μM ATP and 100 μM synthetic PKC substrate peptide (Pyr-Lys-Arg-Pro-Ser-Gln-Arg-Ser-Lys-Tyr-Leu (SEQ ID NO: 1); MW, 1,374; Pyr: […]) at 37° C. for 15 min. […] A substrate peptide peak and a new resultant product peak were detected at the absorbance of 214 nm (SPD-10Avp UV-VIS detector, Shimadzu Co., Kyoto, Japan). […] The molecular weight was calculated from the two standard spectra of bradykinin (MW 1060.2) and substance P (MW 1672.9).
The areas of the non-phosphorylated and phosphorylated substrate peptides were measured (total area corresponds to the concentration of PKC substrate peptide used). […]

## CCCCC[C@@H]1C[C@@H]1C[C@@H]1C[C@H]1CCCCCCCC(=O)O [α,β-DCP-LA, 8-[(1R,2S)-2-{(1R,2R)-2-pentylcyclopropylmethyl}-cyclopropyl]octanoic acid]
[1]
  acquisition latency as compared to the PEG administration group: shortened acquisition latency
  acquisition latency as compared to the racemate DCP-LA (1 mg/kg) administration group: significantly shortened acquisition latency
  acquisition latency as compared to the α,α-DCP-LA (0.25 mg/kg) administration group: significantly shortened acquisition latency
[2]; 100 nM, 37° C., 10 min, FIG. 1
  PKC activation action on PC-12 cells compared to the other optical isomers: most strongly
[2]; PC-12 cells, FIG. 2
  concentration at which the PKC activation action reaches maximum (bell-shaped): about 100 nM
